# Experimental data published in article PMC8639922, “KSHV transactivator-derived small peptide traps coactivators to attenuate MYC and inhibits leukemia and lymphoma cell growth” (Communications Biology, 2021).
# Square brackets hold non-standard residues; d marks the D form. Peptide text beside a SMILES is read from it. Orn = NCCC[C@H](N)C(=O)O; βAla = NCCC(=O)O
# System: MYC promoter and putative enhancer regions
# Assay: CUT&RUN qPCR, H3K27Ac modification
# Assay type: cell-based, human
# Set-up: key: enrichment normalized to spiked-in luciferase plasmid DNA control
# Details: spiked-in luciferase plasmid control
# Source text: We next examined the molecular mechanism of MYC down-regulation by VGN50. We first utilized Cleavage under targets & release using nuclease (CUT&RUN)-sequencing to examine histone modifications that are known to be associated with enhancers in order to map putative MYC enhancer regions in PEL cells (Fig. 5a). Genome-wide CUT&RUN studies identified putative enhancer and promoter regulatory regions that are marked by H3K27Ac, H3K4me1, POLR2A (RNAPII), BRD4, and SMARCC1, a component of the SWI/SNF complex (Fig. 1b and 5a). The identified putative MYC enhancers were also in good agreement with previous ChIP Hi-C[53] and ChIP-seq data sets[54]. Specific primer pairs were then designed to amplify the respective enhancer regions and to examine regulation of coactivator complex recruitment by VGN50.
# Fig. 5 A molecular mechanism of VGN50-mediated MYC-down-regulation. a Cleavage under targets & release using nuclease (CUT&RUN). CUT&RUN was performed with BCBL-1 and BC-1 with the indicated antibodies. Enrichment of active histone modifications, and occupancies of RNAPII and SWI/SNF components at the MYC genomic region are shown as peaks. One of the biological duplicate samples for the BCBL-1 cell line is presented. […] The MYC promoter, enhancer, and negative control regions used for qPCR analyses are indicated with shading. The positions of the MYC coding region, CASC11 coding region, and long non-coding RNA, PVT1, MIR1208 are shown in the panel. b VGN50 inhibits coactivator complex recruitment and c reduces H3K27Ac modification. qPCR is used to examine enrichment of DNA fragments in the presence of VGN50 or mutant peptide (24 μM). Peptide was applied 1 h prior to processing samples for CUT&RUN to replicate SLAM-seq experimental conditions. Non-specific IgG control was also included and enrichment with IgG control at each genomic region was set as 1 for b, and spiked-in luciferase plasmid DNA was used for additional internal control for c. d Formation of a larger protein complex with VGN50. Sucrose gradient sedimentation was used to monitor changes in protein complex formation in the presence of VGN50. The experiment flow chart is shown at the top of this panel. Fractions were collected from top (#1) to bottom (#23/24). Sample #24 without peptide is a smaller fraction of residual samples. Immunoblotting was performed on the odd number samples and the remaining fraction (#24 for no peptide sample) and probed with Flag-tagged SWI/SNF components (SMARCA4, SMARCC2, and SMARCB1). The position of each protein component based on molecular size is indicated. e KSHV K-Rta colocalizes with SWI/SNF components in reactivating BCBL-1 cells. TREx-BCBL-1 cells were triggered for reactivation by treatment with Dox and TPA for 28 h and stained with the indicated antibodies. Images were acquired with Keyence fluorescence microscopy. f A model for VGN50 molecular action. A model depicting the putative molecular action of VGN50 is presented. Coactivator complexes are dynamically assembled on enhancer and promoter regions via transcription factor binding. VGN50, an IDR fragment derived from an exceptionally potent viral transactivator, flexibly interacts with components of coactivators and traps them, thus reduces the available resources for cellular enhancers to activate MYC promoters.
# CUT&RUN[72] was performed essentially by following the online protocol developed by Dr. Henikoff’s lab with a few modifications to fit our needs. Cells were washed with PBS and wash buffer [20 mM HEPES-KOH pH 7.5, 150 mM NaCl, 0.5 mM Spermidine (Sigma, S2626), and proteinase inhibitor (Roche)]. After removing the wash buffer, cells were captured on magnetic concanavalin A (ConA) beads (Polysciences, PA, USA) in the presence of CaCl2. […]
structure (smiles),measurement,setting,value
CC(C)C[C@H](NC(=O)CCNC(=O)[C@H](CCCNC(=N)N)NC(=O)[C@H](CCCNC(=N)N)NC(=O)[C@H](CCCNC(=N)N)NC(=O)[C@H](CCCN)NC(=O)[C@H](CCCNC(=N)N)NC(=O)[C@H](CCCNC(=N)N)NC(=O)[C@H](CCCCN)NC(=O)[C@H](CCCCN)NC(=O)[C@H](N)CCCNC(=N)N)C(=O)N[C@@H](CO)C(=O)N[C@@H](CO)C(=O)N[C@@H](C)C(=O)N[C@@H](C)C(=O)N[C@@H](C)C(=O)NCC(=O)N[C@@H](CC(C)C)C(=O)N[C@@H](Cc1ccc(O)cc1)C(=O)N[C@@H](CCC(N)=O)C(=O)N[C@@H](CC(C)C)C(=O)N[C@@H](CC(=O)O)C(=O)N[C@H](C(=O)O)[C@@H](C)O [Mt-P] (H-[dR]KKRR[Orn]RRR[βAla]LSSAAAGLYQLDT-OH; N-terminus and C-terminus assumed),"H3K27Ac enrichment, CUT&RUN qPCR","region Cont., peptide 24 μM 1 h, replicate 1",1.234
same,"H3K27Ac enrichment, CUT&RUN qPCR","region Cont., peptide 24 μM 1 h, replicate 2",1.768
same,"H3K27Ac enrichment, CUT&RUN qPCR","region Cont., peptide 24 μM 1 h, replicate 3",1.486
same,"H3K27Ac enrichment, CUT&RUN qPCR","region E3, peptide 24 μM 1 h, replicate 1",2.706
same,"H3K27Ac enrichment, CUT&RUN qPCR","region E3, peptide 24 μM 1 h, replicate 2",2.727
same,"H3K27Ac enrichment, CUT&RUN qPCR","region E3, peptide 24 μM 1 h, replicate 3",2.006
same,"H3K27Ac enrichment, CUT&RUN qPCR","region E4, peptide 24 μM 1 h, replicate 1",25.383
same,"H3K27Ac enrichment, CUT&RUN qPCR","region E4, peptide 24 μM 1 h, replicate 2",24.888
same,"H3K27Ac enrichment, CUT&RUN qPCR","region E4, peptide 24 μM 1 h, replicate 3",21.090
same,"H3K27Ac enrichment, CUT&RUN qPCR","region E5, peptide 24 μM 1 h, replicate 1",8.581
same,"H3K27Ac enrichment, CUT&RUN qPCR","region E5, peptide 24 μM 1 h, replicate 2",8.863
same,"H3K27Ac enrichment, CUT&RUN qPCR","region E5, peptide 24 μM 1 h, replicate 3",8.913
same,"H3K27Ac enrichment, CUT&RUN qPCR","region P1, peptide 24 μM 1 h, replicate 1",6.685
same,"H3K27Ac enrichment, CUT&RUN qPCR","region P1, peptide 24 μM 1 h, replicate 2",5.570
same,"H3K27Ac enrichment, CUT&RUN qPCR","region P1, peptide 24 μM 1 h, replicate 3",7.094
